The source of these data is US20210403606A1, “METHOD FOR SEPARATING AND PURIFYING POLYSACCHARIDES FROM GANODERMA SPORES” (ZHONGKE HEALTH INDUSTRY GROUP JIANGSU PHARMACEUTICAL CO., …, priority 2018, published 2021).

For one data set, the system named is transplanted tumor Heps. Briefly: Inhibitory effects on the transplanted tumor Heps in mice by tail vein injection. The format is in vivo, ICR mice. The protocol:
(§1) 1.2. Animals: ICR mice, 18-22 g, half males and half females, provided by the Animal Laboratory of China Pharmaceutical University. The animals were fed with pellet feed in an air-conditioned room at a temperature of 18-24° C., and a relative humidity of 70%.
3.1. Inhibitory effects of No. 1, No. 2, and No. 3 on the transplanted tumor Heps in mice by tail vein injection
3.1.1. Route of administration: No. 1, No. 2, and No. 3 are administrated by tail vein injection (iv).
3.1.2. Schedule of administration: the mice are inoculated with solid-type Heps tumors according to protocols of transplanted tumor research, and 24 hours after inoculation, the medicines are intravenously administered once every other day for a total of 4 doses. On the day after stopping administration, the mice are sacrificed and dissected.
3.1.3. Dose setting: There are 6 groups in total, namely:
3.1.4. Volume of administration: 0.4 ml/20 g
(§2) 3.1.5. Test method: 60 mice of the foregoing specification were inoculated with solid-type Heps tumors according to protocols of the transplanted tumor research. The mice were weighed 24 hours after inoculation, and randomly divided into 6 groups, each with 10 mice, having half males and half females. The blank control group and the CTX group were respectively used as a negative control group and a positive control group. 24 hours after inoculation, the medicines were intravenously administered once every other day for a total of 4 doses. The mice were weighed on the day after stopping administration. The tumor-bearing mice were sacrificed, and the tumor masses were separated and weighed, and the obtained data was statistically processed (t-test).

Another data set concerns transplanted tumor S180. The data set can be described thus: Inhibitory effects on the transplanted tumor S180 in mice by tail vein injection. Format: in vivo, ICR mice. The procedure: as §1
3.2. Inhibitory effects of No. 1, No. 2, and No. 3 on the transplanted tumor S180 in mice by tail vein injection
3.2.1. Route of administration: No. 1, No. 2, and No. 3 are administrated by tail vein injection (iv).
3.2.2. Schedule of administration: the mice are inoculated with solid-type 5180 tumors according to protocols of transplanted tumor research, and 24 hours after inoculation, the medicines are intravenously administered once every other day for a total of 4 doses. On the day after stopping administration, the mice are sacrificed and dissected.
3.2.3. Dose setting: There are 6 groups in total, namely:
3.2.4. Volume of administration: 0.4 ml/20 g
as §2, with “3.2.5.” for “3.1.5.”, “5180” for “Heps”

Each structure is given as a SMILES string.

In the case of `O=P1(N(CCCl)CCCl)NCCCO1` (centres unmarked) [CTX, Cyclophosphamide], the Tumor inhibition rate turned out to be 74.20% in the data set on transplanted tumor Heps (Heps, 30 mg/kg once every other day, 4 doses) and 65.71% in the data set with transplanted tumor S180 (S180, 30 mg/kg once every other day, 4 doses). Further, the Tumor weight came out at 0.42 ± 0.19 g with transplanted tumor Heps (Heps, 30 mg/kg once every other day, 4 doses, X ± SD, n = 10) and 0.55 ± 0.18 g with transplanted tumor S180 (S180, 30 mg/kg once every other day, 4 doses, X ± SD, n = 10). The “Weight After administration” value in the data set with transplanted tumor Heps (Heps-bearing mice, 30 mg/kg once every other day, 4 doses, X ± SD, n = 10) is listed as 23.2 ± 2.74; with transplanted tumor S180 (S180-bearing mice, 30 mg/kg once every other day, 4 doses, X ± SD, n = 10), 23.2 ± 2.74. In addition, the “Weight Before administration” value in the data set on transplanted tumor Heps (Heps-bearing mice, 30 mg/kg, baseline body weight, X ± SD, n = 10) is reported as 20.0 ± 1.36; in the data set with transplanted tumor S180 (S180-bearing mice, 30 mg/kg, baseline body weight, X ± SD, n = 10), 20.1 ± 1.28.
